# Measurements from US20230085307A1, “PYRIDAZINONE COMPOUND AND HERBICIDE” (NISSAN CHEMICAL CORPORATION, priority 2019, published 2023).
# Experiments:
# [1] = tested on: late watergrass; test: Test Example 1: herbicidal activity, application before weed generation under submerged conditions (Table 16, symbol A); type: in vivo, late watergrass (Echinochloa oryzicola); details: amount of applied herbicide 320 g/ha
# Source text: (§1) [Test Example 1] Herbicidal Activity Test by Application before Weed Generation under Submerged Conditions After alluvial soil was placed into 1/10000 are of Wagner pot, water was poured and mixed to form a submerged condition having a water depth of 4 cm. Seeds of late watergrass, Japanese bulrush, and oval-leafed pondweed were sowed in a mixed manner in the aforementioned pot, and then 2.5 leaf stage rice plant seedlings were transplanted thereto. On the day of sowing seeds, the emulsion agent of the compound of the present invention prepared according to Formulation Example 2 was diluted with water so as to achieve a predetermined herbicide amount, and the diluted emulsion agent was applied to the surface of the water. The pot was placed in a greenhouse at 25° C. to 30° C. for growth of the plants. Three weeks after the herbicide application, the effect of the herbicide on each plant was evaluated according to the following criteria. Evaluation Criteria 5: Herbicidal rate of 90% or more (almost completely withered) 4: Herbicidal rate of 70% or more and less than 90% 3: Herbicidal rate of 40% or more and less than 70% 2: Herbicidal rate of 20% or more and less than 40% 1: Herbicidal rate of 5% or more and less than 20% 0: Herbicidal rate of 5% or less (almost no effect)
# [2] = tested on: Japanese bulrush; test: Test Example 1: herbicidal activity, application before weed generation under submerged conditions (Table 16, symbol B); type: in vivo, Japanese bulrush (Schoenoplectus juncoides); details: amount of applied herbicide 320 g/ha
# Source text: as §1
# [3] = tested on: barnyard grass; test: Test Example 3: herbicidal effect by foliage application, Wagner pot (Table 18, symbol H); type: in vivo, barnyard grass (Echinochloa crus-galli)
# Summary of the method: (§2)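 Plants were sown in alluvial soil held under 0.1–0.5 cm standing water and grown 14 days in a greenhouse at 25–30 °C. An emulsifiable formulation, water-diluted to the set dose, was then sprayed onto the foliage, and effects were scored three weeks later using previously defined criteria.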
# [4] = tested on: Chinese sprangletop; test: Test Example 3: herbicidal effect by foliage application, Wagner pot (Table 18, symbol D); type: in vivo, chinese sprangletop (Leptochloa chinensis)
# Summary of the method: as §2
# [5] = tested on: rice flat sedge; test: Test Example 3: herbicidal effect by foliage application, Wagner pot (Table 18, symbol E); type: in vivo, rice flat sedge (Cyperus iria)
# Summary of the method: as §2
# [6] = tested on: southern crabgrass; test: Test Example 4: herbicidal effect by soil treatment (Table 19, symbol F); type: in vivo, southern crabgrass (Digitaria ciliaris); details: amount of applied herbicide 320 g/ha
# Summary of the method: (§3)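 Three weeks of greenhouse growth at 25° C. to 30° C. followed a uniform surface spray of water-diluted emulsion at a predetermined herbicide amount. Seeds had been sown beforehand under about 1.5 cm of sterilized diluvial soil. Grading followed criteria set out in an earlier test.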
# [7] = tested on: green foxtail; test: Test Example 4: herbicidal effect by soil treatment (Table 19, symbol G); type: in vivo, green foxtail (Setaria viridis); details: amount of applied herbicide 320 g/ha
# Summary of the method: as §3
# [8] = tested on: barnyard grass; test: Test Example 4: herbicidal effect by soil treatment (Table 19, symbol H); type: in vivo, barnyard grass (Echinochloa crus-galli); details: amount of applied herbicide 320 g/ha
# Summary of the method: as §3
# [9] = tested on: wild oat; test: Test Example 4: herbicidal effect by soil treatment (Table 19, symbol I); type: in vivo, wild oat (Avena fatua); details: amount of applied herbicide 320 g/ha
# Summary of the method: as §3
# [10] = tested on: blackgrass; test: Test Example 4: herbicidal effect by soil treatment (Table 19, symbol J); type: in vivo, blackgrass (Alopecurus myosuroides); details: amount of applied herbicide 320 g/ha
# Summary of the method: as §3
# [11] = tested on: Italian ryegrass; test: Test Example 4: herbicidal effect by soil treatment (Table 19, symbol K); type: in vivo, Italian ryegrass (Lolium multiflorum); details: amount of applied herbicide 320 g/ha
# Summary of the method: as §3
# [12] = tested on: windgrass; test: Test Example 4: herbicidal effect by soil treatment (Table 19, symbol L); type: in vivo, windgrass (Apera spica-venti); details: amount of applied herbicide 320 g/ha
# Summary of the method: as §3
# [13] = tested on: velvetleaf; test: Test Example 4: herbicidal effect by soil treatment (Table 19, symbol M); type: in vivo, velvetleaf (Abutilon theophrasti); details: amount of applied herbicide 320 g/ha
# Summary of the method: as §3
# [14] = tested on: redroot pigweed; test: Test Example 4: herbicidal effect by soil treatment (Table 19, symbol N); type: in vivo, redroot pigweed (Amaranthus retroflexus); details: amount of applied herbicide 320 g/ha
# Summary of the method: as §3
# [15] = tested on: lambsquarters; test: Test Example 4: herbicidal effect by soil treatment (Table 19, symbol O); type: in vivo, lambsquarters (Chenopodium album); details: amount of applied herbicide 320 g/ha
# Summary of the method: as §3
# [16] = tested on: chickweed; test: Test Example 4: herbicidal effect by soil treatment (Table 19, symbol P); type: in vivo, common chickweed (Stellaria media); details: amount of applied herbicide 320 g/ha
# Summary of the method: as §3
# [17] = tested on: persian speedwell; test: Test Example 4: herbicidal effect by soil treatment (Table 19, symbol R); type: in vivo, Persian speedwell (Veronica persica); details: amount of applied herbicide 320 g/ha
# Summary of the method: as §3
# [18] = tested on: southern crabgrass; test: Test Example 5: herbicidal effect by foliage application, plastic box (Table 20, symbol F); type: in vivo, southern crabgrass (Digitaria ciliaris); details: foliage application, 320 g/ha, three weeks after application
# Summary of the method: (§4)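 Plants sown in sterilized diluvial soil and grown 14 days in a greenhouse at 25° C to 30° C, then sprayed on the foliage with the compound's emulsion diluted in water to a predetermined herbicide amount. Injury to weeds and crops scored three weeks after application on a visual rating scale.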
# [19] = tested on: green foxtail; test: Test Example 5: herbicidal effect by foliage application, plastic box (Table 20, symbol G); type: in vivo, green foxtail (Setaria viridis); details: foliage application, 320 g/ha, three weeks after application
# Summary of the method: as §4
# [20] = tested on: barnyard grass; test: Test Example 5: herbicidal effect by foliage application, plastic box (Table 20, symbol H); type: in vivo, barnyard grass (Echinochloa crus-galli); details: foliage application, 320 g/ha, three weeks after application
# Summary of the method: as §4
# [21] = tested on: wild oat; test: Test Example 5: herbicidal effect by foliage application, plastic box (Table 20, symbol I); type: in vivo, wild oat (Avena fatua); details: foliage application, 320 g/ha, three weeks after application
# Summary of the method: as §4
# [22] = tested on: blackgrass; test: Test Example 5: herbicidal effect by foliage application, plastic box (Table 20, symbol J); type: in vivo, blackgrass (Alopecurus myosuroides); details: foliage application, 320 g/ha, three weeks after application
# Summary of the method: as §4
# [23] = tested on: Italian ryegrass; test: Test Example 5: herbicidal effect by foliage application, plastic box (Table 20, symbol K); type: in vivo, Italian ryegrass (Lolium multiflorum); details: foliage application, 320 g/ha, three weeks after application
# Summary of the method: as §4
# [24] = tested on: windgrass; test: Test Example 5: herbicidal effect by foliage application, plastic box (Table 20, symbol L); type: in vivo, windgrass (Apera spica-venti); details: foliage application, 320 g/ha, three weeks after application
# Summary of the method: as §4
# [25] = tested on: velvetleaf; test: Test Example 5: herbicidal effect by foliage application, plastic box (Table 20, symbol M); type: in vivo, velvetleaf (Abutilon theophrasti); details: foliage application, 320 g/ha, three weeks after application
# Summary of the method: as §4
# [26] = tested on: redroot pigweed; test: Test Example 5: herbicidal effect by foliage application, plastic box (Table 20, symbol N); type: in vivo, redroot pigweed (Amaranthus retroflexus); details: foliage application, 320 g/ha, three weeks after application
# Summary of the method: as §4
# [27] = tested on: lambsquarters; test: Test Example 5: herbicidal effect by foliage application, plastic box (Table 20, symbol O); type: in vivo, lambsquarters (Chenopodium album); details: foliage application, 320 g/ha, three weeks after application
# Summary of the method: as §4
# [28] = tested on: chickweed; test: Test Example 5: herbicidal effect by foliage application, plastic box (Table 20, symbol P); type: in vivo, common chickweed (Stellaria media); details: foliage application, 320 g/ha, three weeks after application
# Summary of the method: as §4
# [29] = tested on: persian speedwell; test: Test Example 5: herbicidal effect by foliage application, plastic box (Table 20, symbol R); type: in vivo, Persian speedwell (Veronica persica); details: foliage application, 320 g/ha, three weeks after application
# Summary of the method: as §4
# [30] = tested on: oval-leafed pondweed; test: Test Example 1: herbicidal activity, application before weed generation under submerged conditions (Table 16, symbol C); type: in vivo, oval-leafed pondweed (Monochoria vaginalis); details: amount of applied herbicide 320 g/ha
# Source text: as §1
# [31] = amount of applied herbicide 320 g/ha
smiles,measurement,setting,value
COc1ccccc1-c1sc2cc(OS(=O)(=O)N(C)C)ccc2c1-c1c(O)c(C)nn(C)c1=O [3-134],"Herbicidal effect, A: late watergrass",[1],3 (Herbicidal rate of 40% or more and less than 70%)
same,"Herbicidal effect, B: Japanese bulrush",[2],4 (Herbicidal rate of 70% or more and less than 90%)
same,herbicidal effect on barnyard grass (H),[3]; 320 g/ha,3 (Herbicidal rate of 40% or more and less than 70%)
same,herbicidal effect on Chinese sprangletop (D),[4]; 320 g/ha,4 (Herbicidal rate of 70% or more and less than 90%)
same,herbicidal effect on rice flat sedge (E),[5]; 320 g/ha,3 (Herbicidal rate of 40% or more and less than 70%)
same,"Herbicidal effect by soil treatment, F: southern crabgrass",[6],0 (Herbicidal rate of 5% or less (almost no effect))
same,"Herbicidal effect by soil treatment, G: green foxtail",[7],0 (Herbicidal rate of 5% or less (almost no effect))
same,"Herbicidal effect by soil treatment, H: barnyard grass",[8],0 (Herbicidal rate of 5% or less (almost no effect))
same,"Herbicidal effect by soil treatment, I: wild oat",[9],0 (Herbicidal rate of 5% or less (almost no effect))
same,"Herbicidal effect by soil treatment, J: blackgrass",[10],4 (Herbicidal rate of 70% or more and less than 90%)
same,"Herbicidal effect by soil treatment, K: Italian ryegrass",[11],4 (Herbicidal rate of 70% or more and less than 90%)
same,"Herbicidal effect by soil treatment, L: windgrass",[12],5 (Herbicidal rate of 90% or more (almost completely withered))
same,"Herbicidal effect by soil treatment, M: velvetleaf",[13],1 (Herbicidal rate of 5% or more and less than 20%)
same,"Herbicidal effect by soil treatment, N: redroot pigweed",[14],5 (Herbicidal rate of 90% or more (almost completely withered))
same,"Herbicidal effect by soil treatment, O: lambsquarters",[15],3 (Herbicidal rate of 40% or more and less than 70%)
same,"Herbicidal effect by soil treatment, P: chickweed",[16],1 (Herbicidal rate of 5% or more and less than 20%)
same,"Herbicidal effect by soil treatment, R: persian speedwell",[17],3 (Herbicidal rate of 40% or more and less than 70%)
same,"F: southern crabgrass, herbicidal effect grade",[18],4 (Herbicidal rate of 70% or more and less than 90%)
same,"G: green foxtail, herbicidal effect grade",[19],3 (Herbicidal rate of 40% or more and less than 70%)
same,"H: barnyard grass, herbicidal effect grade",[20],0 (Herbicidal rate of 5% or less (almost no effect))
same,"I: wild oat, herbicidal effect grade",[21],2 (Herbicidal rate of 20% or more and less than 40%)
same,"J: blackgrass, herbicidal effect grade",[22],4 (Herbicidal rate of 70% or more and less than 90%)
same,"K: Italian ryegrass, herbicidal effect grade",[23],4 (Herbicidal rate of 70% or more and less than 90%)
same,"L: windgrass, herbicidal effect grade",[24],5 (Herbicidal rate of 90% or more (almost completely withered))
same,"M: velvetleaf, herbicidal effect grade",[25],3 (Herbicidal rate of 40% or more and less than 70%)
same,"N: redroot pigweed, herbicidal effect grade",[26],4 (Herbicidal rate of 70% or more and less than 90%)
same,"O: lambsquarters, herbicidal effect grade",[27],3 (Herbicidal rate of 40% or more and less than 70%)
same,"P: chickweed, herbicidal effect grade",[28],5 (Herbicidal rate of 90% or more (almost completely withered))
same,"R: persian speedwell, herbicidal effect grade",[29],5 (Herbicidal rate of 90% or more (almost completely withered))
Cc1cc2sc(-c3ccc(OC(F)F)cc3)c(-c3c(O)c(C)nn(C)c3=O)c2cc1C [5-098],"Herbicidal effect, A: late watergrass",[1],3 (Herbicidal rate of 40% or more and less than 70%)
same,"Herbicidal effect, B: Japanese bulrush",[2],0 (Herbicidal rate of 5% or less (almost no effect))
same,"Herbicidal effect, C: oval-leafed pondweed",[30],0 (Herbicidal rate of 5% or less (almost no effect))
same,herbicidal effect on southern crabgrass (F),[18],0 (Herbicidal rate of 5% or less (almost no effect))
same,herbicidal effect on green foxtail (G),[19],0 (Herbicidal rate of 5% or less (almost no effect))
same,herbicidal effect on barnyard grass (H),[20],0 (Herbicidal rate of 5% or less (almost no effect))
same,herbicidal effect on wild oat (I),[21],0 (Herbicidal rate of 5% or less (almost no effect))
same,herbicidal effect on blackgrass (J),[22],0 (Herbicidal rate of 5% or less (almost no effect))
same,herbicidal effect on Italian ryegrass (K),[23],0 (Herbicidal rate of 5% or less (almost no effect))
same,herbicidal effect on windgrass (L),[24],0 (Herbicidal rate of 5% or less (almost no effect))
same,herbicidal effect on velvetleaf (M),[25],0 (Herbicidal rate of 5% or less (almost no effect))
same,herbicidal effect on lambsquarters (O),[27],0 (Herbicidal rate of 5% or less (almost no effect))
same,herbicidal effect on persian speedwell (R),[29],5 (Herbicidal rate of 90% or more (almost completely withered))
Cc1nn(C)c(=O)c(-c2c(-c3ccc(OC(F)(F)F)cc3)oc3ccc(F)cc23)c1O [9-033],"Herbicidal effect, A: late watergrass",[1],2 (Herbicidal rate of 20% or more and less than 40%)
same,"Herbicidal effect, B: Japanese bulrush",[2],0 (Herbicidal rate of 5% or less (almost no effect))
same,"Herbicidal effect, C: oval-leafed pondweed",[30],0 (Herbicidal rate of 5% or less (almost no effect))
same,"Herbicidal effect on H (barnyard grass), foliage application",[3]; [31],4 (Herbicidal rate of 70% or more and less than 90%)
same,"Herbicidal effect on D (Chinese sprangletop), foliage application",[4]; [31],3 (Herbicidal rate of 40% or more and less than 70%)
same,"Herbicidal effect on E (rice flat sedge), foliage application",[5]; [31],5 (Herbicidal rate of 90% or more (almost completely withered))
